Measured values from patent US20030045480A1, “Method of treating hyperresorptive bone disorders” (priority 2001, published 2003).

Biological target: Src Kinase (p60c-Src) (Homo sapiens, UniProt P12931)
Assay: General Assay Method for Src-Kinase (DELFIA time-resolved fluorometry, poly(Glu,Tyr) substrate)
Format: biochemical
Settings: Src kinase 1:8000, 100 μM ATP, 15 min. at room temp; read-out: Activity (uMol. Delfia assay. IC50)
Procedure: The compounds 1-25 above were assayed for activity with respect to the Src protein tyrosine kinase by the fluorometric method described in Measurement of the Protein Tyrosine Kinase Activity of c-Src Using Time-Resolved Fluorometry of Europium Chelates, Braunwalder, A. F. et al., Analytical Biochemistry 238, 159-164 (1996), the disclosure of which is incorporated herein by reference, using the materials and procedures further specified below.
General Assay Method for Src-Kinase:
Costar 384 Clear, non-treated, high-binding plates
Sigma poly(Glu, Tyr) 4:1, Ave. MW 35,000
Sigma ATP (1.5 mM Stock Soln. in H2O)
MES Buffer: 30 mM MES (pH 6.8)
MBI Buffer: (MES+0.4 mg/ml BSA+0.003% IGEPAL)
Wallac Eu-labelled anti-phosphotyrosine Antibody (CR04-100)
Antibody Dilution Buffer: (MES+3%BSA)
DELFIA® Wash Solution (TTBS):
DELFIA Enhancement Solution
The plates were coated with 0.1 mg/ml poly(Glu, Tyr) in Coating Solution, 35 μl/well. It was let stand overnight at room temp. The plates were then washed 3 times with MES (100 μl/wash).
The reaction was stopped by aspiration, and then washed 3 times with MES (100 μl/wash). 20 μl 0.4 ng/μl of antibody in Antibody Dilution Buffer (final=8 ng Ab/well) was added and then incubated for 30 min. at RT. The antibody solution was removed by aspiration and then washed 3 times with 1X DELFIA Wash Solution. 20 μl DELFIA Enhancement Solution was added and the value was read.

Src Kinase (p60c-Src), sequence (P12931 whole entry): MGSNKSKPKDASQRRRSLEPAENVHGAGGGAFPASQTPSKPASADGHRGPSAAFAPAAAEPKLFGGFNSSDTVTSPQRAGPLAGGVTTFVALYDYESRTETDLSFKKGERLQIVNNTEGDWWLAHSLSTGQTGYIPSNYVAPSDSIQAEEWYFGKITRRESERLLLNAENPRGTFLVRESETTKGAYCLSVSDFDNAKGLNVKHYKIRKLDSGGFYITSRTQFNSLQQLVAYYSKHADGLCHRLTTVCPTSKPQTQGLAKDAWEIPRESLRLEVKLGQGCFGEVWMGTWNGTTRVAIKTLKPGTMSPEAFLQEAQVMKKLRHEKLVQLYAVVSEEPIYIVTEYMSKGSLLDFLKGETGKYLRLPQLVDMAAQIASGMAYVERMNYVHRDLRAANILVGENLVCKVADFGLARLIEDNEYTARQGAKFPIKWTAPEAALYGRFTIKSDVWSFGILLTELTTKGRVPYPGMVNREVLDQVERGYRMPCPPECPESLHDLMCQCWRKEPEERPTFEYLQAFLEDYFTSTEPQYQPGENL

Structure (SMILES)	IC50
N=C(N)c1ccc(C(=O)N(Cc2cccc(Oc3ccccc3)c2)C(Cc2ccc(-c3ccccc3)cc2)C(=O)NCC(N)=O)cc1 (stereo not shown) [Example 1, N-[4-Amidinobenzoyl]-N-[3-phenoxybenzyl]-3-(4-biphenyl)-alanyl-glycyl-amide]	22 µM
NC(=O)C(Cc1ccc2ccccc2c1)NC(=O)Nc1ccc(N2CCN(C3CCCCC3)CC2)c(NC(=O)/C=C/c2ccccc2)c1 (stereo not shown) [Example 9, 4-Cyclohexyl-1-{[2-cinnamoylamino]-4-[1-aminocarbonyl-2-(2-naphthyl)ethylamino]carbonylaminophenyl}piperazine]	17 µM
CC(C)C(NS(=O)(=O)c1cc(NC(=O)/C=C/c2ccccc2)ccc1N1CCN(C2CCCCC2)CC1)C(N)=O (stereo not shown) [Example 24, 1-[2-[N-(2-Aminocarbonyl-3-methylbutyl)sulfonamido]-5-[2-cinnamoylamino]]phenyl-4-cyclohexylpiperazine]	42 µM
NC(=O)C(Cc1ccc2ccccc2c1)NC(=O)Nc1ccc(N2CCN(C3CCCCC3)CC2)c(NC(=O)CCCc2ccccc2)c1 (stereo not shown) [Example 8, 4-Cyclohexyl-1-{[2-(4-phenylbutanoyl)amino]-4-[1-aminocarbonyl-2-(2-naphthyl)ethylamino]carbonylaminophenyl}piperazine]	8.5 µM
CC(C)(C)c1ccc(Oc2cccc(CN(C(=O)c3cccc(C(=N)N)c3)C(Cc3ccc(N)cc3)C(=O)NCC(N)=O)c2)cc1 (stereo not shown) [Example 3, N-[3-Amidinobenzoyl]-N-[3-(4-tert-butylphenoxy)benzyl]-4-aminophenylalanyl-glycyl-amide]	45 µM
N=C(N)c1ccc(C(=O)N(Cc2ccc(-c3ccccc3)cc2)C(Cc2ccc(-c3ccccc3)cc2)C(=O)NCC(N)=O)cc1 (stereo not shown) [Example 7, N-[4-Amidinobenzoyl]-N-[4-biphenylmethyl]-3-(4-biphenyl)alanyl-glycyl-amide]	13 µM
NC(=O)C1CCC(CNC(=O)Nc2ccc(N3CCCN(C(=O)C4CCCN4)CC3)c(NC(=O)c3cc4ccccc4o3)c2)CC1 (stereo not shown) [Example 18, 4-(Pyrrolidin-2-yl)carbonyl-1-[2-[(2-benzo-furanoyl)amino]-4-[[(4-aminocarbonyl)cyclohexyl-methyl-amino]carbonylamino]phenyl] homopiperazine]	19 µM
CC(C)C(NS(=O)(=O)c1cc(NC(=O)C2CCNCC2)ccc1N1CCC(Cc2ccccc2)CC1)C(N)=O (stereo not shown) [Example 23]	12 µM
NC(=O)C(CC1CCCCC1)NC(=O)Nc1ccc(N2CCCN(C(=O)C3CCNCC3)CC2)c(NC(=O)c2cc3ccccc3o2)c1 (stereo not shown) [Example 15, 4-(Piperidin-4-yl)carbonyl-1-{[2-(2-benzofuranoyl)amino]-4-[1-aminocarbonyl-2-cyclohexylethylamino]carbonylaminophenyl}homopiperazine]	6.5 µM
NC(=O)C(CCc1ccccc1)NC(=O)Nc1ccc(N2CCN(C3CCCCC3)CC2)c(NC(=O)CCCc2ccccc2)c1 (stereo not shown) [Example 11, 4-Cyclohexyl-1-{[2-(4-phenylbutanoyl)amino]-4-[(1-aminocarbonyl-3-phenyl)propylamino]carbonylaminophenyl}piperazine]	11 µM
NC(=O)C(CCc1ccccc1)NC(=O)Nc1ccc(N2CCN(C3CCCCC3)CC2)c(NC(=O)/C=C/c2ccccc2)c1 (stereo not shown) [Example 10, 4-Cyclohexyl-1-{[2-cinnamoylamino]-4-[(1-aminocarbonyl-3-phenyl)propylamino]carbonylaminophenyl}piperazine]	15.5 µM
CC(C)(C)c1ccc(Oc2cccc(CN(C(=O)c3ccc(C(=N)N)cc3)C(Cc3c[nH]c4ccccc34)C(=O)NCC(N)=O)c2)cc1 (stereo not shown) [Example 6, 4-amidinobenzoyl-(3-(4-tert-butylphenoxy)phenoxybenzyl)-tryptanyl-glycyl-amide]	14 µM
NC(=O)C1CCC(CNC(=O)Nc2ccc(N3CCC(N4CCCCC4)CC3)c(NC(=O)c3cc4ccccc4o3)c2)CC1 (stereo not shown) [Example 19]	22 µM
NC(=O)C(CCc1ccccc1)NC(=O)Nc1ccc(N2CCCN(C(=O)C3CCNCC3)CC2)c(NC(=O)CCCc2ccccc2)c1 (stereo not shown) [Example 21]	22 µM
NC(=O)C(CC1CCCCC1)NC(=O)Nc1ccc(N2CCN(C3CCCCC3)CC2)c(NC(=O)/C=C/c2ccccc2)c1 (stereo not shown) [Example 12, 4-Cyclohexyl-1-{[2-cinnamoylamino]-4-[(1-aminocarbonyl-2-cyclohexyl)ethylamino]carbonylaminophenyl}piperazine]	18.5 µM
CC(C)(C)c1ccc(Oc2cccc(CN(C(=O)c3cccc(C(=N)N)c3)C(CC3CCCCC3)C(=O)NCC(N)=O)c2)cc1 (stereo not shown) [Example 2, 3-amidinobenzoyl-(3-(4-tert-butylphenoxy)benzyl)-cyclohexylylalanyl-glycyl-amide]	23 µM
NC(=O)C1CCC(CNS(=O)(=O)c2cc(NC(=O)C3CCCN3)ccc2N2CCC(Cc3ccccc3)CC2)CC1 (stereo not shown) [Example 25, N-[[(4-Aminocarbonyl)cyclohexylmethyl]amino]-[2-[(4-phenylmethyl)piperidin-1-yl]-5-[(2-pyrrolidinocarbonyl)-amino]phenyl]sulfonamide]	27.5 µM
CC(C)C(NS(=O)(=O)c1cc(NC(=O)C2CCCN2)ccc1N1CCC(Cc2ccccc2)CC1)C(N)=O (stereo not shown) [Example 22, N-(1-Aminocarbonyl-2-methylpropyl)-2-[(4-phenylmethyl)piperidin-1-yl]-5-[(2-pyrrolidinocarbonyl)amino]phenylsulfonamide]	14 µM
NC(=O)C1CCC(CNC(=O)Nc2ccc(N3CCCN(C(=O)C4CCNCC4)CC3)c(NC(=O)c3cc4ccccc4o3)c2)CC1 (stereo not shown) [Example 16]	36 µM
NC(=O)C(Cc1ccc2ccccc2c1)NC(=O)Nc1ccc(N2CCCN(C(=O)C3CCNCC3)CC2)c(NC(=O)CCCc2ccccc2)c1 (stereo not shown) [Example 13, 4-(Piperidin-4-yl)carbonyl-1-{[2-(4-phenylbutanoyl)amino]-4-[1-aminocarbonyl-2-(2-naphthyl)ethylamino]carbonylaminophenyl}homopiperazine]	13 µM
CC(C)(C)c1ccc(Oc2cccc(CN(C(=O)c3cccc(C(=N)N)c3)C(CCCNC(=N)N)C(=O)NCC(N)=O)c2)cc1 (stereo not shown) [Example 5, N-[3-Amidinobenzoyl]-N-[3-(4-tert-butylphenoxy)benzyl]-arginyl-glycyl-amide]	12.5 µM
CC(C)(C)c1ccc(Oc2cccc(CN(C(=O)c3cccc(C(=N)N)c3)C(Cc3cccc4ccccc34)C(=O)NCC(N)=O)c2)cc1 (stereo not shown) [Example 4, N-[3-Amidinobenzoyl]-N-[3-(4-tert-butylphenoxy)benzyl]-1-naphthylalanyl-glycyl-amide]	18 µM
CNCC(=O)N1CCCN(c2ccc(NC(=O)NCC3CCC(C(N)=O)CC3)cc2NC(=O)c2cc3ccccc3o2)CC1 (stereo not shown) [Example 17]	37 µM
NC(=O)C(Cc1ccc2ccccc2c1)NC(=O)Nc1ccc(N2CCCN(C(=O)C3CCNCC3)CC2)c(NC(=O)c2cc3ccccc3o2)c1 (stereo not shown) [Example 14, 4-(Piperidin-4-yl)carbonyl-1-{[2-(2-benzofuranoyl)amino]-4-[1-aminocarbonyl-2-(2-naphthyl)ethylamino]carbonylaminophenyl}homopiperazine]	2.75 µM
NC(=O)C(CC1CCCCC1)NC(=O)Nc1ccc(N2CCCN(C(=O)C3CCNCC3)CC2)c(NC(=O)CCCc2ccccc2)c1 (stereo not shown) [Example 20]	28 µM
